Data from patent US12257323B2, “Modified wound dressings” (CONVATEC TECHNOLOGIES INC., priority 2016, dated 2025).

How the values were obtained:
[1] = Hydrogel formation in buffer viewed under light microscope; conditions: pH 4 general lab buffer or pH 9 K2HPO4/MgCl2 buffer (20 μL each)
MMP-1 = biological target: T1, MMP-1 (Homo sapiens, UniProt P03956); conditions: cited from earlier work
T1 sequence (P03956 100-469): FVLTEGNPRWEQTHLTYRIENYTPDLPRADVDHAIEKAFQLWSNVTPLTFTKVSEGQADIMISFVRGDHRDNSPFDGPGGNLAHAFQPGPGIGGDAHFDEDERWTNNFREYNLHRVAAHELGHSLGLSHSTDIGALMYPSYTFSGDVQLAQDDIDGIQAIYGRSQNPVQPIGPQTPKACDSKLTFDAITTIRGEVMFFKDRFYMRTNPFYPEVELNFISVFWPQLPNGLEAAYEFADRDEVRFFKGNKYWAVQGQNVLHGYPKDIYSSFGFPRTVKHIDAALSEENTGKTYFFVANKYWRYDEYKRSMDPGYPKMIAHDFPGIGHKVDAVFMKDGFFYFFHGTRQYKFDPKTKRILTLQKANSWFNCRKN

MMP-8 = MMP-8 (Homo sapiens, UniProt P22894); conditions: cited from earlier work
MMP-2 = biological target: T2, MMP-2 (Homo sapiens, UniProt P08253); conditions: cited from earlier work
T2 sequence (P08253 110-660): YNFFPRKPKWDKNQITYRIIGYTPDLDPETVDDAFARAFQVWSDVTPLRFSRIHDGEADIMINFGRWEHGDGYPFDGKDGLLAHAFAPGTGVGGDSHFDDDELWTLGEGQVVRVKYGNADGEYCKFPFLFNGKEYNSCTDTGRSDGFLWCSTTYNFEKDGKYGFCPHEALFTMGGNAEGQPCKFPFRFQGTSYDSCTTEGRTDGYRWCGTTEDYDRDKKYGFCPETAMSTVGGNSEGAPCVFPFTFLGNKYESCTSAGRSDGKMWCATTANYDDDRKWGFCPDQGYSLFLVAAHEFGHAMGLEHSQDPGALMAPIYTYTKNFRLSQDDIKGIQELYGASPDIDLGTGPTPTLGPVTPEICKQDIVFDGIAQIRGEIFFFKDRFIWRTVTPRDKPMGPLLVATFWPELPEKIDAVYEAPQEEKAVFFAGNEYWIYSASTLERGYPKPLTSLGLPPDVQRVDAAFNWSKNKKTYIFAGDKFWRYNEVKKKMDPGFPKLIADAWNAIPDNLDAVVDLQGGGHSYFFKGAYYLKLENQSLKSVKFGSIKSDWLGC

MMP-9 = MMP-9 (Homo sapiens, UniProt P14780); conditions: cited from earlier work
MMP-3 = MMP-3 (Homo sapiens, UniProt P08254); conditions: cited from earlier work
MMP-7 = biological target: T3, MMP-7 (Homo sapiens, UniProt P09237); conditions: cited from earlier work
T3 sequence (P09237 95-267): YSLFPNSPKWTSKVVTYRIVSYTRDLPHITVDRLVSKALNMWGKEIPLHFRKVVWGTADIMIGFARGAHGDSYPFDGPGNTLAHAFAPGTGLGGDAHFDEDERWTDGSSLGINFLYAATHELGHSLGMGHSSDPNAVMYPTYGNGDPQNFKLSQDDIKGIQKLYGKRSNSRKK

MMP-8, sequence (P22894 101-467): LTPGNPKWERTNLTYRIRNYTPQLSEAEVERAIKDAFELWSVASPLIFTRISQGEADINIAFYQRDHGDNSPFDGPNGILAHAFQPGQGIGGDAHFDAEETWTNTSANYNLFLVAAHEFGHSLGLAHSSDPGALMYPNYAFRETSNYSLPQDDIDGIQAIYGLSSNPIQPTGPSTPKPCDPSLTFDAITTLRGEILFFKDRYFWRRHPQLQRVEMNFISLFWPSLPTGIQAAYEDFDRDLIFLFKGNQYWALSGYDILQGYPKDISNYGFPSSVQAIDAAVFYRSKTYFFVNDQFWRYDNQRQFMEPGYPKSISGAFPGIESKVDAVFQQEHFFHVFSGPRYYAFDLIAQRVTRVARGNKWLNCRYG
MMP-3, sequence (P08254 100-477): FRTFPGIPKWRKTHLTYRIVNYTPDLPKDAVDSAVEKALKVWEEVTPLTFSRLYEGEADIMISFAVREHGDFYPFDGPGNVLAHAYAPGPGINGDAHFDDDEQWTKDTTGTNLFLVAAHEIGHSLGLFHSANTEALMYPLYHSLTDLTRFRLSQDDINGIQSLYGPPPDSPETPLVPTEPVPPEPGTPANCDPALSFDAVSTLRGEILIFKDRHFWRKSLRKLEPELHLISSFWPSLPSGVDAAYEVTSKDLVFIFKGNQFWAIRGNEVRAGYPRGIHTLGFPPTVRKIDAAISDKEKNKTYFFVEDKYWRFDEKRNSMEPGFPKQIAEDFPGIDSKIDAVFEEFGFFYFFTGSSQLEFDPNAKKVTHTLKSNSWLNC
MMP-9, sequence (P14780 94-707): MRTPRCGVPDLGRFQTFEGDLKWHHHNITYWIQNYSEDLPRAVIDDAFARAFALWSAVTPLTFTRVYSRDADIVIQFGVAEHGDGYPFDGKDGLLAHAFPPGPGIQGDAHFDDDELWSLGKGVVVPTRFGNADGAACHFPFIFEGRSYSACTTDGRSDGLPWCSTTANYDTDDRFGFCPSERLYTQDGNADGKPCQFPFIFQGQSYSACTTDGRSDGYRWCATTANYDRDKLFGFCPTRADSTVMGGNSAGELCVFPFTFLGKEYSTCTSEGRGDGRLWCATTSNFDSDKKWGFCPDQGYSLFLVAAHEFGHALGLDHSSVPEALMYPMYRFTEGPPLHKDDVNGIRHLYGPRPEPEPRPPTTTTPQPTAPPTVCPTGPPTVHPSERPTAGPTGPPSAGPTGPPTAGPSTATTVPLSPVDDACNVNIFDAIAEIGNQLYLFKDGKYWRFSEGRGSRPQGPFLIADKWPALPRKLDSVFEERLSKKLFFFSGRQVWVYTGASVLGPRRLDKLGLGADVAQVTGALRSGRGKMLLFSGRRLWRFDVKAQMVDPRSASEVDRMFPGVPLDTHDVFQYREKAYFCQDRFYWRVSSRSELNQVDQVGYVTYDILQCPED

CN(C)c1ccc(/N=N/c2ccc(S(=O)(=O)NCCCC[C@H](NC(=O)OCC3c4ccccc4-c4ccccc43)C(=O)O)cc2)cc1 [compound 4-c]
Hydrogel formation on contact with buffer [1]: did not form a hydrogel

Gly-Pro-Gln-Gly#Ile-Phe-Gly-Gln
Relative rate MMP-1 (MMP-1): 369 | Relative rate MMP-8 (MMP-8): 510 | Relative rate MMP-2 (MMP-2): 380 | Relative rate MMP-9 (MMP-9): 390 | Relative rate MMP-3 (MMP-3): 130 | Relative rate MMP-7 (MMP-7): 140

Gly-Pro-Gln-Gly#Ile-Trp-Gly-Gln
Relative rate MMP-1 (MMP-1): 840 | Relative rate MMP-8 (MMP-8): 930 | Relative rate MMP-2 (MMP-2): 310 | Relative rate MMP-9 (MMP-9): 140 | Relative rate MMP-3 (MMP-3): 280 | Relative rate MMP-7 (MMP-7): 330

Gly-Pro-Gln-Gly#Leu-Ala-Gly-Gln
Relative rate MMP-1 (MMP-1): 130 | Relative rate MMP-8 (MMP-8): 180 | Relative rate MMP-2 (MMP-2): 88 | Relative rate MMP-9 (MMP-9): 80 | Relative rate MMP-3 (MMP-3): 110 | Relative rate MMP-7 (MMP-7): 300

Gly-Pro-Gln-Gly#Phe-Ala-Gly-Gln
Relative rate MMP-1 (MMP-1): 20 | Relative rate MMP-8 (MMP-8): 46 | Relative rate MMP-2 (MMP-2): 55 | Relative rate MMP-9 (MMP-9): 24 | Relative rate MMP-3 (MMP-3): 140 | Relative rate MMP-7 (MMP-7): 74

Gly-Pro-Gln-Gly#Pro-Ala-Gly-Gln
Relative rate MMP-1 (MMP-1): <0.5 | Relative rate MMP-8 (MMP-8): <0.5 | Relative rate MMP-2 (MMP-2): <5.0 | Relative rate MMP-9 (MMP-9): <5.0 | Relative rate MMP-3 (MMP-3): <0.5 | Relative rate MMP-7 (MMP-7): <5.0

Gly-Pro-Gln-Gly#Ser-Ala-Gly-Gln
Relative rate MMP-1 (MMP-1): 5.9 | Relative rate MMP-8 (MMP-8): 1.6 | Relative rate MMP-2 (MMP-2): 15 | Relative rate MMP-9 (MMP-9): <5.0 | Relative rate MMP-3 (MMP-3): 45 | Relative rate MMP-7 (MMP-7): 5.5

Gly-Pro-Gln-Gly#Trp-Ala-Gly-Gln
Relative rate MMP-1 (MMP-1): <0.5 | Relative rate MMP-8 (MMP-8): 49 | Relative rate MMP-2 (MMP-2): <5.0 | Relative rate MMP-9 (MMP-9): <5.0 | Relative rate MMP-3 (MMP-3): 120 | Relative rate MMP-7 (MMP-7): <5.0

Gly-Pro-Gln-Gly#Tyr-Ala-Gly-Gln
Relative rate MMP-1 (MMP-1): 50 | Relative rate MMP-8 (MMP-8): 390 | Relative rate MMP-2 (MMP-2): 50 | Relative rate MMP-9 (MMP-9): 96 | Relative rate MMP-3 (MMP-3): 150 | Relative rate MMP-7 (MMP-7): 21

Gly-Pro-Gln-Gly#Val-Ala-Gly-Gln
Relative rate MMP-1 (MMP-1): 9.1 | Relative rate MMP-8 (MMP-8): 9.0 | Relative rate MMP-2 (MMP-2): 30 | Relative rate MMP-9 (MMP-9): 25 | Relative rate MMP-3 (MMP-3): 53 | Relative rate MMP-7 (MMP-7): 17

Gly-Pro-Gln-Leu#Ile-Ala-Gly-Gln
Relative rate MMP-1 (MMP-1): 27 | Relative rate MMP-8 (MMP-8): 54 | Relative rate MMP-2 (MMP-2): 21 | Relative rate MMP-9 (MMP-9): 8.8 | Relative rate MMP-3 (MMP-3): 170 | Relative rate MMP-7 (MMP-7): 49

Gly-Pro-Gln-Met#Ile-Ain-Gly-Gln
Relative rate MMP-1 (MMP-1): 200 | Relative rate MMP-8 (MMP-8): 140 | Relative rate MMP-2 (MMP-2): 22 | Relative rate MMP-9 (MMP-9): 12 | Relative rate MMP-3 (MMP-3): 110 | Relative rate MMP-7 (MMP-7): 150

Gly-Pro-Gln-Phe#Ile-Ala-Gly-Gln
Relative rate MMP-1 (MMP-1): 95 | Relative rate MMP-8 (MMP-8): 170 | Relative rate MMP-2 (MMP-2): 15 | Relative rate MMP-9 (MMP-9): 26 | Relative rate MMP-3 (MMP-3): 68 | Relative rate MMP-7 (MMP-7): 63

Gly-Pro-Gln-Pro#Ile-Ala-Gly-Gln
Relative rate MMP-1 (MMP-1): 260 | Relative rate MMP-8 (MMP-8): 190 | Relative rate MMP-2 (MMP-2): 32 | Relative rate MMP-9 (MMP-9): 46 | Relative rate MMP-3 (MMP-3): 170 | Relative rate MMP-7 (MMP-7): 140

Gly-Pro-Gln-Tyr#Ile-Ala-Gly-Gln
Relative rate MMP-1 (MMP-1): 130 | Relative rate MMP-8 (MMP-8): 180 | Relative rate MMP-2 (MMP-2): 58 | Relative rate MMP-9 (MMP-9): 30 | Relative rate MMP-3 (MMP-3): 68 | Relative rate MMP-7 (MMP-7): 34

Gly-Pro-Gln-Val#Ile-Ala-GLy-Gln
Relative rate MMP-1 (MMP-1): 5.5 | Relative rate MMP-8 (MMP-8): 7.9 | Relative rate MMP-2 (MMP-2): <5.0 | Relative rate MMP-9 (MMP-9): <5.0 | Relative rate MMP-3 (MMP-3): 32 | Relative rate MMP-7 (MMP-7): <5.0

Gly-Pro-Hyp-Gly#Ile-Ala-Gly-Gln
Relative rate MMP-1 (MMP-1): 11 | Relative rate MMP-8 (MMP-8): 15 | Relative rate MMP-2 (MMP-2): 32 | Relative rate MMP-9 (MMP-9): 15 | Relative rate MMP-3 (MMP-3): 83 | Relative rate MMP-7 (MMP-7): 17

Gly-Pro-Leu-Gly#Ile-Ala-Gly-Gln
Relative rate MMP-1 (MMP-1): 150 | Relative rate MMP-8 (MMP-8): 260 | Relative rate MMP-2 (MMP-2): 330 | Relative rate MMP-9 (MMP-9): 290 | Relative rate MMP-3 (MMP-3): 190 | Relative rate MMP-7 (MMP-7): 420

Gly-Pro-Tyr-Gly#Ile-Ala-Gly-Gln
Relative rate MMP-1 (MMP-1): 200 | Relative rate MMP-8 (MMP-8): 110 | Relative rate MMP-2 (MMP-2): 200 | Relative rate MMP-9 (MMP-9): 150 | Relative rate MMP-3 (MMP-3): 230 | Relative rate MMP-7 (MMP-7): 240

Gly-Pro-Val-Gly#Ile-Ala-Gly-Gln
Relative rate MMP-1 (MMP-1): 32 | Relative rate MMP-8 (MMP-8): 30 | Relative rate MMP-2 (MMP-2): 130 | Relative rate MMP-9 (MMP-9): 110 | Relative rate MMP-3 (MMP-3): 160 | Relative rate MMP-7 (MMP-7): 57

Gly-Pto-Arg-Gly#Ile-Ala-Gly-Gln
Relative rate MMP-1 (MMP-1): 17 | Relative rate MMP-8 (MMP-8): 32 | Relative rate MMP-2 (MMP-2): 160 | Relative rate MMP-9 (MMP-9): 83 | Relative rate MMP-3 (MMP-3): 99 | Relative rate MMP-7 (MMP-7): 13

Gly-Pto-Met-Gly#Ile-Ala-Gly-Gln (IAGQ; printed: Ile-Ala-Gly-Gln)
Relative rate MMP-1 (MMP-1): 160 | Relative rate MMP-8 (MMP-8): 160 | Relative rate MMP-2 (MMP-2): 120 | Relative rate MMP-9 (MMP-9): 180 | Relative rate MMP-3 (MMP-3): 120 | Relative rate MMP-7 (MMP-7): 400
